Test results published in US5776925A, “Methods for cancer chemosensitization” (Pharmacyclics, Inc., priority 1996, dated 1998).

Key:
[1] = system: MES-SA cells
[2] = in vivo; cited from earlier work
[3] = system: EMT6 tumors; assay: in vivo chemosensitization of cyclophosphamide, subcutaneous EMT6 tumors in Balb/c mice; set-up: species or system murine (Balb/c mice); conditions: cyclophosphamide 40 mg/kg followed by GdT2BET 40 μmol/kg 5 min, or 5 min and 5 hr later; once a week for three weeks
Description: In vivo studies were carried out using Balb/c mice with EMT6 tumors implanted subcutaneously as described in Example 2. 4-Hydroxy cyclophosphamide was dissolved at a concentration of 5 mg/mL in 0.9% NaCl. GdT2BET was dissolved at a concentration of 2 mM in 5% mannitol. EMT6 tumors were implanted subcutaneously in the right flanks of Balb/c mice; 9 mice were in each group. Group #1 received cyclophosphamide (CY) at 40 mg/kg; group #2 received cyclophosphamide (CY) at 40 mg/kg followed by GdT2BET at 40 μmol/kg 5 min later; and group #3 received cyclophosphamide (CY) at 40 mg/kg followed by GdT2BET at 40 μmol/kg 5 min and 5 hr later. This protocol was repeated once a week for three weeks.

[4] = system: MES-SA/Dx5 cells; assay: chemosensitization effect in doxorubicin-selected mdr1 variant; format: cell-based, human
[5] = system: EMT6 tumors
[6] = system: MES-SA cells; format: cell-based, human
[7] = system: MDR gene in bone marrow cells; conditions: MDR1-transgenic mouse, simultaneous administration (Mickisch, 1991); cited from earlier work

## CC(=O)O[C@H]1C(=O)[C@@]2(C)[C@H]([C@H](OC(=O)c3ccccc3)[C@]3(O)C[C@H](OC(=O)[C@H](O)[C@@H](NC(=O)c4ccccc4)c4ccccc4)C(C)=C1C3(C)C)[C@]1(OC(C)=O)CO[C@@H]1C[C@@H]2O [paclitaxel]
[1]
  IC50 difference relative to control / cytotoxicity in the presence of texaphyrin (FIG. 2): enhanced cytotoxicity

## CN1CCN(CCCN2c3ccccc3Sc3ccc(C(F)(F)F)cc32)CC1 [trifluoperazine]
[2]
  dose-limiting toxicities as chemosensitizer: attributed to the inherent toxicity of the chemosensitizer and not due to enhanced chemotherapy toxicity

## CC(=O)[O-].CC(=O)[O-].CCc1c(CC)c2cc3nc(cnc4cc(OCCOCCOCCOC)c(OCCOCCOCCOC)cc4ncc4nc(cc1[n-]2)C(CCCO)=C4C)C(C)=C3CCCO.O.[Gd+3] [GdT2BET]
[3]
  chemosensitization with cyclophosphamide in vivo: little chemosensitization occurred
[1]
  enhancement of cytotoxicity of bleomycin: seen at all concentrations of bleomycin tested and at all three concentrations of texaphyrin tested
[1]; with bleomycin, 50 μM, 100 μM, and 150 μM GdT2BET, 48 hr
  percent survival of the cells: substantially less in the presence of texaphyrin
[4]; MES-SA/Dx5 compared with MES-SA
  mechanism of action of chemosensitization: P-glycoprotein-independent
[5]; ADR+2GdT2BET group (GdT2BET 5 min and 5 hr post ADR), first study
  cures (no evidence of disease at end of study): Two
[5]; ADR+2GdT2BET group, further study
  cures, further study: two
[5]; adriamycin 7.5 mg/kg iv followed by GdT2BET 40 μmol/kg iv, once a week for three weeks
  adriamycin cytotoxicity (tumor): clear enhancement of adriamycin cytotoxicity
[5]; after day 9, FIG. 1, n=14
  p, ADR+2GdT2BET versus ADR only: < 0.05
[5]; further study: ADR+2GdT2BET and three-step texaphyrin/ADR/texaphyrin
  cytotoxicity in further study: enhanced cytotoxicity

## CC/C(=C(\c1ccccc1)c1ccc(OCCN(C)C)cc1)c1ccccc1 [tamoxifen]
[2]
  dose-limiting toxicities as chemosensitizer: attributed to the inherent toxicity of the chemosensitizer and not due to enhanced chemotherapy toxicity

## COc1cc([C@@H]2c3cc4c(cc3[C@@H](O[C@@H]3O[C@@H]5CO[C@@H](C)O[C@H]5[C@H](O)[C@H]3O)[C@H]3COC(=O)[C@H]23)OCO4)cc(OC)c1O [etoposide]
[6]
  effectiveness in the presence of texaphyrin: effective
[1]
  IC50 difference relative to control / cytotoxicity in the presence of texaphyrin (FIG. 2): enhanced cytotoxicity
[4]
  effectiveness in the presence of texaphyrin: effective

## bleomycin
[6]
  effectiveness in the presence of texaphyrin: effective
[4]
  effectiveness in the presence of texaphyrin: effective

## C=C[C@H]1C[N@@]2CC[C@H]1C[C@H]2[C@H](O)c1ccnc2ccc(OC)cc12 [quinine]
[7]
  reversal of drug resistance: circumvented in a dose-dependent manner

## COc1cccc2c1C(=O)c1c(O)c3c(c(O)c1C2=O)C[C@@](O)(C(=O)CO)C[C@@H]3O[C@H]1C[C@H](N)[C@H](O)[C@H](C)O1 [doxorubicin]
[6]
  effectiveness in the presence of texaphyrin: effective
[4]
  effectiveness in the presence of texaphyrin: effective

## N.N.[Cl][Pt][Cl] [cisplatin]
[6]
  effectiveness in the presence of texaphyrin: effective
[4]
  effectiveness in the presence of texaphyrin: effective

## COc1ccc(CCN(C)CCCC(C#N)(c2ccc(OC)c(OC)c2)C(C)C)cc1OC (centres unmarked) [verapamil]
[7]
  reversal of drug resistance: circumvented in a dose-dependent manner
